From patent US20060121116A1, “Hydrogel for cell separation and method of separating cells” (priority 2003, published 2006)

Test system: human peripheral blood leucocytes
Experiment: Migration capability of neutrophils: fMLP in soft agar under hydrogel layer
Assay type: cell-based
Details: for Number of Cells in Hydrogel of the Invention: 37° C., 3 hours, 10^7 leucocytes applied; for Number of Cells in Soft Agar: microscopically observed
Method: Soft agar mediums (prepared by dissolving Nacalai Tesque's soft agar powder in a D′MEM (Dulbecco's Modification Eagle's Medium, by GIBCO, containing 10% FCS (Fetal Calf Serum)) having 0.6% of concentration and each containing 0 M, 10^−6 M, 10^−7 M or 10^−8 M of fMLP (N-formyl-methionyl-leucyl-phenylalanine, molecular weight 437.6, chemotactic peptide, produced by Sigma) were prepared at 42° C. Each medium was put into a polystyrene dish (mfd. by SOMILON) having a diameter of 35 mm in an amount of 1 ml (depth of medium, about 1 mm) each, and gelled therein at room temperature. The hydrogel-forming polymer (TGP-5) of the invention obtained in Production Example 7 was sterilized with EOG in the same manner as in Production Example 4. One g of the polymer was dissolved in 9 g of D′MEM medium at 4° C., and this was put on the above-mentioned soft agar gel in an amount of 0.5 ml (depth of the polymer solution, about 0.5 mm) each, and gelled at room temperature. The sol-gel transition temperature of the hydrogel was 18° C. On the hydrogel layer of the invention, a tissue culture insert (mfd. by NUNC) with a filter having a pore size of 8.0 μm was set, and 0.5 ml of a cell suspension containing 10^7 human peripheral blood leucocytes was put into the insert and set in an incubator at 37° C. This was statically set therein at 37° C. for 3 hours, and then the dish was taken out of the incubator. The dish was cooled on ice, the tissue culture insert was removed, and the hydrogel of the invention was converted into a sol state. The hydrogel of the invention that was liquid with cooling with ice was collected, diluted with physiological saline and centrifuged (3000 rpm, 5 minutes). The precipitated cell were re-suspended in 20 μl of physiological saline, and the number of the cell was counted to thereby determine the number of the neutrophils having moved into the hydrogel of the invention. After the hydrogel of the invention was removed, the number of the cell having moved into the soft agar was microscopically observed, and the result is shown in Table 1.

[1] = fMLP concentration in soft agar 10^−6 M
[2] = fMLP concentration in soft agar 10^−7 M
[3] = fMLP concentration in soft agar 10^−8 M

CSCC[C@H](NC=O)C(=O)N[C@@H](CC(C)C)C(=O)N[C@@H](Cc1ccccc1)C(=O)O [fMLP, N-formyl-methionyl-leucyl-phenylalanine]
Number of Cells in Hydrogel of the Invention [1]: 300 | Number of Cells in Soft Agar [1]: numerous | Number of Cells in Hydrogel of the Invention [2]: 17,600 | Number of Cells in Soft Agar [2]: many | Number of Cells in Hydrogel of the Invention [3]: 4,740 | Number of Cells in Soft Agar [3]: a few
